Source: patent publication US12252524B2, “GIP/GLP1 co-agonist compounds” (Eli Lilly and Company, priority 2018, dated 2025)
Numbered stars: 1 amine (or outer) side, 2 acyl side, 3 side chain; on linkers, the order of the positions; unused ones are H or OH. Square brackets hold non-standard residues; d marks the D form. Side chains are listed from the residue outwards. Peptide text beside a SMILES is read from it. * marks the point of attachment. C20 diacid = O=C(O)CCCCCCCCCCCCCCCCCCC(=O)*; γGlu = O=C(O)[C@H](CCC(=O)[*:2])N[*:1]; αMeY = C[C@](N)(Cc1ccc(O)cc1)C(=O)O; αMeL = CC(C)C[C@](C)(N)C(=O)O; Orn = NCCC[C@H](N)C(=O)O; Dap = NC[C@H](N)C(=O)O; AEEA = NCCOCCOCC(=O)O; Aib = CC(C)(N)C(=O)O

Assays:
[1] = biological target: T1, human GLP-1R (Homo sapiens, UniProt P43220); test: GLP-1R CHO cell β-arrestin recruitment assay; format: cell-based; design: host or cells: CHO-K1 PathHunter cells, assay-ready frozen; conditions: for EC50: CHO-K1 cells, PathHunter β-arrestin-2 recruitment, 0.1% casein, read-out: hGLP1R B-Arrestin2 Rel EC50 uM (SEM, n); for hGLP1R B-Arrestin2 % Top: normalized to GLP-1 maximum control
Procedure, shortened: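 Peptide-induced β-arrestin-2 recruitment measured by enzyme-fragment complementation luminescence after 90 min at 37 °C plus 60 min detection at RT.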

[2] = biological target: human GLP-1 receptor (GLP-1R) (Homo sapiens, UniProt P43220); test: cAMP pharmacological functional assay in presence of casein, hGLP-1R; format: cell-based; conditions: HEK293 cells expressing hGLP-1R, 0.1% Casein, geometric mean; read-out: hGLP1R cAMP Rel EC50 nM (SEM, n)
[3] = biological target: T1, human GLP-1R; test: GLP-1R HEK293 cell membrane [35S]GTPγS binding assay; format: biochemical; design: expressed in transfected cells; host or cells: HEK293 cells expressing human GLP-1R; membranes; conditions: HEK293 cell membranes expressing human GLP-1R, [35S]GTPγS binding; read-out: hGLP1R GTPgS Rel EC50 nM (SEM, n)
Procedure, shortened: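 Agonist-driven Gαs activation read as [35S]GTPγS ([…]) binding to receptor-expressing HEK293 membranes, 30 min at room temperature, pH 7.4. Detection by anti-Gαs immunocapture on scintillation beads; EC50 derived from four-parameter logistic concentration-response fit.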

[4] = biological target: T2, gastric inhibitory peptide receptor (GIPR) (Homo sapiens, UniProt P48546); test: cAMP pharmacological functional assay in presence of casein, hGIPR; format: cell-based; conditions: HEK293 cells expressing hGIPR, 0.1% Casein, geometric mean; read-out: hGIPR cAMP Rel EC50 nM (SEM, n)
T2 sequence (P48546 22-466): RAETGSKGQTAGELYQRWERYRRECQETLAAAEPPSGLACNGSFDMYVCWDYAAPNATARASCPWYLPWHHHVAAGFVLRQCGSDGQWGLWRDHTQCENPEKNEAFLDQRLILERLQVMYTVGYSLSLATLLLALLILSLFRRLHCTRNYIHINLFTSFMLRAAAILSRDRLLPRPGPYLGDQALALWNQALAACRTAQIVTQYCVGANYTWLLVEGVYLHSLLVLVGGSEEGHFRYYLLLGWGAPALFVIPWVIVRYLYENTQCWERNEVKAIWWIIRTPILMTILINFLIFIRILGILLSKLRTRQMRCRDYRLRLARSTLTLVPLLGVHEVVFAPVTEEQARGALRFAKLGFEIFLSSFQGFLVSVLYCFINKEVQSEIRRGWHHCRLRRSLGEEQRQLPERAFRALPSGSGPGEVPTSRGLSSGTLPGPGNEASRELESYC

T1 sequence (P43220 24-463): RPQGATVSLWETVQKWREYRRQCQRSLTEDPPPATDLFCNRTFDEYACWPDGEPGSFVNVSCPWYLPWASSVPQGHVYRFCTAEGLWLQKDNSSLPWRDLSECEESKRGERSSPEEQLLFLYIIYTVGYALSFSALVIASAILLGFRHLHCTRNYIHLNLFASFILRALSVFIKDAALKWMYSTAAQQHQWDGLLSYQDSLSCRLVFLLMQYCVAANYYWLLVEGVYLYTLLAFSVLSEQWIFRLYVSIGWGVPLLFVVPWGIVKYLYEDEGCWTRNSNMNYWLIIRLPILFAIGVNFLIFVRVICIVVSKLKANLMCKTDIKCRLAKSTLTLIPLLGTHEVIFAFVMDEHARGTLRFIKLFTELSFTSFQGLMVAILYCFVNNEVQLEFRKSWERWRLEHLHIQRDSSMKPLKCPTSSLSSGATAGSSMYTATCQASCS
Chain of human GLP-1 receptor (GLP-1R) (P43220 24-463): as above

| Structure (SMILES) | EC50 [1] [µM] | hGLP1R B-Arrestin2 % Top [1] [%] | EC50 [2] [nM] | EC50 [3] [nM] | EC50 [4] [nM] |
| --- | --- | --- | --- | --- | --- |
| CC[C@H](C)[C@H](NC(=O)[C@H](CC(C)C)NC(=O)[C@H](Cc1ccc(O)cc1)NC(=O)[C@H](CCC(=O)O)NC(=O)[C@@H](NC(=O)[C@H](Cc1ccccc1)NC(=O)[C@H](CCC(=O)O)NC(=O)C(C)(C)NC(=O)[C@H](CCC(N)=O)NC(=O)[C@H](C)NC(=O)[C@H](CCCCNC(=O)COCCOCCNC(=O)COCCOCCNC(=O)CC[C@H](NC(=O)CCCCCCCCCCCCCCCCCCC(=O)O)C(=O)O)NC(=O)[C@H](CN)NC(=O)[C@H](CC(=O)O)NC(=O)[C@H](CC(C)C)NC(=O)[C@](C)(CC(C)C)NC(=O)[C@@H](NC(=O)[C@H](CO)NC(=O)[C@H](Cc1ccc(O)cc1)NC(=O)[C@H](CC(=O)O)NC(=O)[C@H](CO)NC(=O)[C@@H](NC(=O)[C@H](Cc1ccccc1)NC(=O)[C@@H](NC(=O)CNC(=O)[C@H](CCC(=O)O)NC(=O)C(C)(C)NC(=O)[C@H](N)Cc1ccc(O)cc1)[C@@H](C)O)[C@@H](C)O)[C@@H](C)CC)[C@@H](C)CC)C(=O)N[C@@H](C)C(=O)NCC(=O)NCC(=O)N1CCC[C@H]1C(=O)N[C@@H](CO)C(=O)N[C@@H](CO)C(=O)NCC(=O)N[C@@H](C)C(=O)N1CCC[C@H]1C(=O)N1CCC[C@H]1C(=O)N1CCC[C@H]1C(=O)N[C@@H](CO)C(N)=O [Example 351] (H-[dY][Aib]EGTFTSDYSI[αMeL]LD[Dap]K([AEEA-AEEA-γGlu-C20 diacid])AQ[Aib]EFIEYLIAGGPSSGAPPPS-NH2) | 0.0196 | 23.5 | 0.149 | 0.563 | 0.298 |
| CC[C@H](C)[C@H](NC(=O)[C@H](CC(C)C)NC(=O)[C@H](Cc1ccc(O)cc1)NC(=O)[C@@H](CCC(=O)O)NC(=O)[C@@H](NC(=O)[C@H](Cc1ccccc1)NC(=O)[C@H](CCC(=O)O)NC(=O)C(C)(C)NC(=O)[C@H](CCC(N)=O)NC(=O)[C@H](C)NC(=O)[C@H](CCCCNC(=O)COCCOCCNC(=O)COCCOCCNC(=O)CC[C@H](NC(=O)CCCCCCCCCCCCCCCCCCC(=O)O)C(=O)O)NC(=O)[C@H](CCCCN)NC(=O)[C@H](CC(=O)O)NC(=O)[C@H](CC(C)C)NC(=O)[C@](C)(CC(C)C)NC(=O)[C@@H](NC(=O)[C@H](CO)NC(=O)[C@H](Cc1ccc(O)cc1)NC(=O)[C@H](CC(=O)O)NC(=O)[C@H](CO)NC(=O)[C@@H](NC(=O)[C@H](Cc1ccccc1)NC(=O)[C@@H](NC(=O)CNC(=O)[C@H](CCC(=O)O)NC(=O)C(C)(C)NC(=O)[C@H](N)Cc1ccc(O)cc1)[C@@H](C)O)[C@@H](C)O)[C@@H](C)CC)[C@@H](C)CC)C(=O)N[C@@H](CCC(=O)O)C(=O)NCC(=O)NCC(=O)N1CCC[C@H]1C(=O)N[C@@H](CO)C(=O)N[C@@H](CO)C(=O)NCC(=O)N[C@@H](C)C(=O)N1CCC[C@H]1C(=O)N1CCC[C@H]1C(=O)N1CCC[C@H]1C(=O)N[C@@H](CO)C(N)=O [Example 353] (H-[dY][Aib]EGTFTSDYSI[αMeL]LDKK([AEEA-AEEA-γGlu-C20 diacid])AQ[Aib]EFI[dE]YLIEGGPSSGAPPPS-NH2) | 0.559 | 23.0 | 1.09 | 1.96 | 0.497 |
| CC[C@H](C)[C@H](NC(=O)[C@H](CC(C)C)NC(=O)[C@H](Cc1ccc(O)cc1)NC(=O)[C@@H](CCC(=O)O)NC(=O)[C@@H](NC(=O)[C@H](Cc1ccccc1)NC(=O)[C@H](CCC(=O)O)NC(=O)C(C)(C)NC(=O)[C@H](CCC(N)=O)NC(=O)[C@H](C)NC(=O)[C@H](CCCCNC(=O)COCCOCCNC(=O)COCCOCCNC(=O)CC[C@H](NC(=O)CCCCCCCCCCCCCCCCCCC(=O)O)C(=O)O)NC(=O)[C@H](CCCN)NC(=O)[C@H](CC(=O)O)NC(=O)[C@H](CC(C)C)NC(=O)[C@](C)(CC(C)C)NC(=O)[C@@H](NC(=O)[C@H](CO)NC(=O)[C@H](Cc1ccc(O)cc1)NC(=O)[C@H](CC(=O)O)NC(=O)[C@H](CO)NC(=O)[C@@H](NC(=O)[C@H](Cc1ccccc1)NC(=O)[C@@H](NC(=O)CNC(=O)[C@H](CCC(=O)O)NC(=O)C(C)(C)NC(=O)[C@H](N)Cc1ccc(O)cc1)[C@@H](C)O)[C@@H](C)O)[C@@H](C)CC)[C@@H](C)CC)C(=O)N[C@@H](CCC(=O)O)C(=O)NCC(=O)NCC(=O)N1CCC[C@H]1C(=O)N[C@@H](CO)C(=O)N[C@@H](CO)C(=O)NCC(=O)N[C@@H](C)C(=O)N1CCC[C@H]1C(=O)N1CCC[C@H]1C(=O)N1CCC[C@H]1C(=O)N[C@@H](CO)C(N)=O [Example 355] (H-[dY][Aib]EGTFTSDYSI[αMeL]LD[Orn]K([AEEA-AEEA-γGlu-C20 diacid])AQ[Aib]EFI[dE]YLIEGGPSSGAPPPS-NH2) | 0.363 | 18.3 | 0.896 | 1.76 | 0.685 |
| CC[C@H](C)[C@H](NC(=O)[C@H](CC(C)C)NC(=O)[C@](C)(Cc1ccc(O)cc1)NC(=O)[C@H](CCC(=O)O)NC(=O)[C@@H](NC(=O)[C@H](Cc1ccccc1)NC(=O)[C@H](C)NC(=O)C(C)(C)NC(=O)[C@H](CCC(N)=O)NC(=O)[C@H](C)NC(=O)[C@H](CCCCNC(=O)COCCOCCNC(=O)COCCOCCNC(=O)CC[C@H](NC(=O)CCCCCCCCCCCCCCCCCCC(=O)O)C(=O)O)NC(=O)[C@H](CCCCN)NC(=O)[C@H](CC(=O)O)NC(=O)[C@H](CC(C)C)NC(=O)[C@](C)(CC(C)C)NC(=O)[C@@H](NC(=O)[C@H](CO)NC(=O)[C@H](Cc1ccc(O)cc1)NC(=O)[C@H](CC(=O)O)NC(=O)[C@H](CO)NC(=O)[C@@H](NC(=O)[C@H](Cc1ccccc1)NC(=O)[C@@H](NC(=O)CNC(=O)[C@H](CCC(=O)O)NC(=O)C(C)(C)NC(=O)[C@H](N)Cc1ccc(O)cc1)[C@@H](C)O)[C@@H](C)O)[C@@H](C)CC)[C@@H](C)CC)C(=O)N[C@@H](C)C(=O)NCC(=O)NCC(=O)N1CCC[C@H]1C(=O)N[C@@H](CO)C(=O)N[C@@H](CO)C(=O)NCC(=O)N[C@@H](C)C(=O)N1CCC[C@H]1C(=O)N1CCC[C@H]1C(=O)N1CCC[C@H]1C(=O)N[C@@H](CO)C(N)=O [Example 365] (H-[dY][Aib]EGTFTSDYSI[αMeL]LDKK([AEEA-AEEA-γGlu-C20 diacid])AQ[Aib]AFIE[αMeY]LIAGGPSSGAPPPS-NH2) | 0.00703 | 20.8 | 0.175 | 0.464 | 0.0678 |
| CC[C@H](C)[C@H](NC(=O)[C@H](CC(C)C)NC(=O)[C@](C)(Cc1ccc(O)cc1)NC(=O)[C@H](CCC(=O)O)NC(=O)[C@@H](NC(=O)[C@H](Cc1ccccc1)NC(=O)[C@H](C)NC(=O)C(C)(C)NC(=O)[C@H](CCC(N)=O)NC(=O)[C@H](C)NC(=O)[C@H](CCCCNC(=O)COCCOCCNC(=O)COCCOCCNC(=O)CC[C@H](NC(=O)CCCCCCCCCCCCCCCCCCC(=O)O)C(=O)O)NC(=O)[C@H](CCCN)NC(=O)[C@H](CC(=O)O)NC(=O)[C@H](CC(C)C)NC(=O)[C@](C)(CC(C)C)NC(=O)[C@@H](NC(=O)[C@H](CO)NC(=O)[C@H](Cc1ccc(O)cc1)NC(=O)[C@H](CC(=O)O)NC(=O)[C@H](CO)NC(=O)[C@@H](NC(=O)[C@H](Cc1ccccc1)NC(=O)[C@@H](NC(=O)CNC(=O)[C@H](CCC(=O)O)NC(=O)C(C)(C)NC(=O)[C@H](N)Cc1ccc(O)cc1)[C@@H](C)O)[C@@H](C)O)[C@@H](C)CC)[C@@H](C)CC)C(=O)N[C@@H](C)C(=O)NCC(=O)NCC(=O)N1CCC[C@H]1C(=O)N[C@@H](CO)C(=O)N[C@@H](CO)C(=O)NCC(=O)N[C@@H](C)C(=O)N1CCC[C@H]1C(=O)N1CCC[C@H]1C(=O)N1CCC[C@H]1C(=O)N[C@@H](CO)C(N)=O [Example 366] (H-[dY][Aib]EGTFTSDYSI[αMeL]LD[Orn]K([AEEA-AEEA-γGlu-C20 diacid])AQ[Aib]AFIE[αMeY]LIAGGPSSGAPPPS-NH2) | 0.00557 | 21.2 | 0.366 | 0.409 | 0.0889 |
